In ChEMBL document CHEMBL1201862, “PubChem BioAssay data set” (2004):
Calls of active or inactive are those of the source.

Legend:
Estrogen receptor beta = Estrogen receptor beta (Homo sapiens, UniProt Q92731);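 also: recombinant ER-beta bound to coactivator SRC1 peptide in presence of estradiol agonist; inhibitors block coactivator peptide binding and lower the FRET signal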
[1] = biological target: FAD-linked sulfhydryl oxidase ALR (Homo sapiens, UniProt P55789); experiment: ALR-catalysed DTT oxidation blockers – biochemical, H2O2 detection, luminescence, cherry-pick, dose response (AID 493248)
[2] = THP-1 cell cytotoxicity, dose response, cytotoxicity control for non-replicating M. tuberculosis project (AID 489025); assay type: functional
Paired box protein Pax-8 = Paired box protein Pax-8 (Homo sapiens, UniProt Q06710); experiment: PAX8 transcriptional activity inhibition in RMG-I – RMG-I cells, luciferase, cherry-pick, dose response (AID 687027); assay type: functional, cell-based;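 also: luciferase reporter driven by Pax8 target thyroperoxidase promoter measured by SteadyGlo luminescence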
[3] = HepG2 cell cytotoxicity, dose response, cytotoxicity control for non-replicating M. tuberculosis project (AID 489018); assay type: functional; settings: Mycobacterium tuberculosis
HeLa = experiment: ATP-based viability loss in HeLa cells – cell-based, CellTiter-Glo luminescence, cherry-pick samples, cytotoxicity control for MITF activator project, dose response (AID 540259); assay type: functional; settings: Homo sapiens
Prothrombin = Prothrombin (Homo sapiens, UniProt P00734); experiment: Thrombin 1536 HTS Dose Response Confirmation. [Related pubchem assays: 1046 (Thrombin 1536 HTS; hits were confirmed in this assay)]; assay type: functional
[4] = biological target: Dual specificity tyrosine-phosphorylation-regulated kinase 1A (Rattus norvegicus, UniProt Q63470); assay type: biochemical, Homo sapiens
[5] = biological target: T1, Adenosylmethionine-8-amino-7-oxononanoate aminotransferase (Mycobacterium tuberculosis, UniProt P9WQ81); experiment: Mycobacterium tuberculosis BioA enzyme inhibitor Measured in Biochemical System Using Plate Reader - 2163-02_Inhibitor_Dose_CherryPick_Activity.; assay type: functional, Mycobacterium tuberculosis UT205
T1 sequence (P9WQ81 whole entry): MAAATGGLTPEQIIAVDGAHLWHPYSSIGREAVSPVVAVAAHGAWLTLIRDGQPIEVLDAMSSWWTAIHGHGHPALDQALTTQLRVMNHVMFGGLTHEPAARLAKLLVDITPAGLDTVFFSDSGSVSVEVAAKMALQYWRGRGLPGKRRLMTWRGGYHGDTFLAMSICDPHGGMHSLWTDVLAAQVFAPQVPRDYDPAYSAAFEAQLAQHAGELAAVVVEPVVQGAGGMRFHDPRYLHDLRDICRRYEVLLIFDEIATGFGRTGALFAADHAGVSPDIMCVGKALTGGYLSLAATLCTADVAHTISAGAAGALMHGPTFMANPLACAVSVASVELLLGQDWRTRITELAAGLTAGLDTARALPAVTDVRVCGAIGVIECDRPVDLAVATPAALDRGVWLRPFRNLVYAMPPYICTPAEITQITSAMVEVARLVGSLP

H4 = experiment: Luminescence Cell-Based Dose Response HTS to Identify Activators of 5'UTR Stem-Loop Driven Prion Protein mRNA Translation in H4 Neuroglioblastoma Cells. [Related pubchem assays: 1829 (Project Summary), 1814 (Primary HTS)]; assay type: functional; settings: Homo sapiens
[6] = biological target: Luciferin 4-monooxygenase (Photinus pyralis, UniProt P08659); experiment: Counter Screen for Luciferase-based Assay Positives. [Related pubchem assays: 620, 618, 411 ]
HT-1080 = experiment: HT1080 cell viability loss – fluorescence readout (AID 620); assay type: functional, cell-based; settings: Homo sapiens
Vero = experiment: cells; assay type: functional, cell-based; settings: Chlorocebus sabaeus
cells [7] = assay type: functional, cell-based
cells [8] = assay type: functional, cell-based; remark: listed apart in the source
Major prion protein = Major prion protein (Homo sapiens, UniProt P04156); assay type: functional, cell-based
cells [9] = experiment: cells

Structure (SMILES): O=C1OC(Nc2ccc3c(c2)OCO3)c2ccccc21 (stereo unspecified)
- IC50 (Estrogen receptor beta): > 50 µM (not active)
- AC50 [1]: 0.577 µM (active)

Structure (SMILES): CCOC(=O)Nc1ccc2c(c1)N(C(=O)CCCl)c1ccccc1[S@]2=O
- CC50 [2]: 24.7 µM (active)
- AC50 (Paired box protein Pax-8): 4.57 µM (active)
- CC50 [3]: 18.9 µM (active)

Structure (SMILES): CC(=O)Nc1cccc(-c2nc3ccc(NC(C)=O)cc3s2)c1
- AC50 (HeLa): 59.3 µM (active)

Structure (SMILES): Cc1cccc(NC(=S)NC(=O)/C=C/c2ccccc2)n1
- IC50 (Prothrombin): > 50 µM (not active)

Structure (SMILES): O=c1c2c(O)cc(O)cc2oc2ccc(O)c(O[C@@H]3O[C@H](CO)[C@@H](O)[C@H](O)[C@H]3O[C@H]3O[C@H](CO)[C@@H](O)[C@H](O)[C@H]3O)c12
- AC50 [4]: 3.69 µM (active)

Structure (SMILES): Cc1c(C(N)=O)sc(N)c1C(=O)OC(C)C
- AC50 [5]: 3.06 µM (active)

Structure (SMILES): CC(C)(C)c1cc(NC(=O)Nc2ccccc2)no1
- EC50 (H4): > 120 µM (not active)
- AC50 (HeLa): > 350 µM (inactive)

Structure (SMILES): N#C/C(=C/c1ccc(O)c([N+](=O)[O-])c1)C(=O)Nc1ccccc1
- AC50 [4]: 1.11 µM (active)

Structure (SMILES): Cc1ccc2[nH]c(-c3cccc(N)c3)nc2c1
- EC50 [6]: 0.49 µM (active)
- EC50 (HT-1080): 20.6 µM (active)
- AC50 [1]: 0.838 µM (active)

Structure (SMILES): CCN(CC)CCCNC(=O)c1ccc2c(Cl)c3c(nc2c1)CCCC3
- IC50 (Vero): 22.6 µM (active)

Structure (SMILES): Cc1c(-c2cccs2)[n+]([O-])c2c([n+]1[O-])CCC2
- IC50 (Prothrombin): > 50 µM (not active)

Structure (SMILES): CC[n+]1c(S(=O)(=O)[O-])ccc2ccc(C)cc21
- EC50 (cells [7]): > 350 µM (not active)
- EC50 (cells [8]): > 350 µM (not active)

Structure (SMILES): Sc1nc(Cc2ccc(Cl)cc2)nc2ccccc12
- IC50 (Major prion protein): 7.46 µM (active)
- IC50 (cells [9]): > 138 µM (inactive)
